Laboratory results as given in ChEMBL document CHEMBL1126353, “Substituted benzamides with conformationally restricted side chains. 4. Hetero-azabicyclo[x.y.0] derivatives as gastric prokinetic agents” (1992).
Active and inactive are the calls of the source. No cut-off for these calls is given here.

Legend:
[1] = biological target: Dopamine receptor (Rattus norvegicus) (UniProt P25115+P19020+P30729+P18901+P61169); assay: Dopamine receptor antagonist activity expressed as ability to inhibit apomorphine-induced climbing behavior in rat on subcutaneous administration.; type: functional, organism-based
Rattus norvegicus = assay: Prokinetic activity expressed as ability to increase intragastric pressure in rat on subcutaneous administration; type: functional
[2] = Ratio of ability to inhibit apomorphine induced climbing to that of increasing intragastric pressure in rats; type: functional
Canis familiaris = assay: Compound was tested for inhibiting apomorphine-induced emesis in dog up to a dose of 10 mg/kg when administered subcutaneously; E - compound found effective; type: functional, organism-based; design: dose 10 mg/kg; details: Canis lupus familiaris

ED50 [1] [mg/kg]	SMILES	Activity (Rattus norvegicus) [mg/kg]	Ratio [2]	Activity (Canis familiaris)
> 25	COc1cc(N)c(Cl)cc1C(=O)NC1CCCN2CCOCC12 (stereo in doubt; 18) [listing 1 of 2 here]			
70	COc1cc(N)c(Cl)cc1C(=O)NC1CCN2CCOCC2C1 (stereo in doubt; 14) [listing 1 of 2 here]			
10	COc1cc(N)c(Cl)cc1C(=O)NC1CN2CCCCN2C1	0.5	20	
5	COc1cc(N)c(Cl)cc1C(=O)NC1CN2CCC(c3ccccc3)CN2C1 (stereo not drawn)	>1		
30	COc1cc(N)c(Cl)cc1C(=O)NC1CCCN2CCOCC12 (stereo in doubt; 17) [listing 1 of 2 here]			
40	COc1cc(N)c(Cl)cc1C(=O)NC1CCN2C(C)COCC2C1 (stereo not drawn)	0.2	200	
25	COc1cc(N)c(Cl)cc1C(=O)NC1CCN2C(C)CCCC2C1 (stereo not drawn) [BRL-20627]	0.5	50	
30	COc1cc(N)c(Cl)cc1C(=O)NC1CCN2CCCCN2C1 (stereo not drawn)	1	30	
10	COc1cc(N)c(Cl)cc1C(=O)NC1CN2Cc3ccccc3CN2C1	>1		
30	COc1cc(N)c(Cl)cc1C(=O)NC1CCCN2CCSCC12 (stereo in doubt; 24) [listing 2 of 2 here]			
> 50	COc1cc(N)c(Cl)cc1C(=O)NC1CN2CC=CCN2C1	>1		
5	COc1cc(N)c(Cl)cc1C(=O)NC1CCCN2CCSCC12 (stereo in doubt; 23) [listing 1 of 2 here]			
> 10	COc1cc(N)c(Cl)cc1C(=O)NC1CCN2CC[S+]([O-])CC2C1 (stereo in doubt; 21) [listing 2 of 2 here]			
> 25	COc1cc(N)c(Cl)cc1C(=O)NC1CCN2CCSCC2C1 (stereo not drawn)	1		Active
30	COc1cc(N)c(Cl)cc1C(=O)NC1CCN2CCOCC2C1 (stereo in doubt; 15) [listing 2 of 2 here]			

Continued, compound first:

SMILES	ED50 [1] [mg/kg]	Activity (Rattus norvegicus) [mg/kg]	Ratio [2]	Activity (Canis familiaris)
CCN(CC)CCNC(=O)c1cc(Cl)c(N)cc1OC [METOCLOPRAMIDE]	0.8	1	0.8	
COc1cc(N)c(Cl)cc1C(=O)NC1CCN2CCOCC2C1 (stereo in doubt; 14) [listing 2 of 2 here]		0.2	350	
COc1cc(N)c(Cl)cc1C(=O)NC1CCCN2CCSCC12 (stereo in doubt; 24) [listing 1 of 2 here]		1	30	
COc1cc(N)c(Cl)cc1C(=O)NC1CCN2CC[S+]([O-])CC2C1 (stereo in doubt; 21) [listing 1 of 2 here]		5		
COc1cc(N)c(Cl)cc1C(=O)NC1CCN2CCOCC2C1 (stereo in doubt; 15) [listing 1 of 2 here]		1	30	
COc1cc(N)c(Cl)cc1C(=O)NC1CCN2CC[S+]([O-])CC2C1 (stereo in doubt; 22) [listing 1 of 2 here]		1		
COc1cc(N)c(Cl)cc1C(=O)NC1CCN2CC[S+]([O-])CC2C1 (stereo in doubt; 22) [listing 2 of 2 here]				Active
COc1cc(N)c(Cl)cc1C(=O)NC1CCCN2CCOCC12 (stereo in doubt; 17) [listing 2 of 2 here]		>5		
COc1cc(N)c(Cl)cc1C(=O)NC1CCCN2CCOCC12 (stereo in doubt; 18) [listing 2 of 2 here]		1		
COc1cc(N)c(Cl)cc1C(=O)NC1CCCN2CCSCC12 (stereo in doubt; 23) [listing 2 of 2 here]		>5		
